# Target: KRas (Homo sapiens, UniProt P01116, G12C)
# Assay: KRas degradation in NCI-H2030 cells by Western blot, normalized to GAPDH (data of Table 14)
# Assay type: cell-based
# Set-up: host or cells: NCI-H2030
# Conditions: for Dmax: NCI-H2030
# Outline: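 Cells serum-starved 24 h, then treated at 0.3, 1 and 3 μM in 0.1% DMSO, 24 h for VHL-based compounds and 72 h for others. Lysates (10 μg protein) immunoblotted; KRas normalized to GAPDH, degradation visually estimated below 25% or quantified versus DMSO lane, giving DC50 and DMax.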
Compound,"Percent Degradation at Indicated Concentration (μM): 0.3 (H2030 cells, 0.3 μM)","Percent Degradation at Indicated Concentration (μM): 1 (H2030 cells, 1 μM)",Dmax (H2030 cells),"Percent Degradation at Indicated Concentration (μM) (H2030, 0.3 μM)","Percent Degradation at Indicated Concentration (μM) (H2030, 1 μM)","Percent Degradation at Indicated Concentration (μM) (H2030, 3 μM)",Dmax,further results
"C=CC(=O)N1CCN(c2nc(NCCC(=O)N(C)CCOCCOCCNC(=O)c3ccc(NC(=O)[C@@H]4N[C@@H](CC(C)(C)C)[C@](C#N)(c5ccc(Cl)cc5F)[C@H]4c4cccc(Cl)c4F)c(OC)c3)nc3c(F)c(-c4cc(O)cc5ccccc45)c(Cl)cc23)CC1 [compound 302, (2R,3S,4R,5S)-N-(4-((2-(2-(2-(3-((4-(4-acryloylpiperazin-1-yl)-6-chloro-8-fluoro-7-(3-hydroxynaphthalen-1-yl)quinazolin-2-yl)amino)-N-methylpropanamido)ethoxy)eth-oxy)ethyl)carbamoyl)-2-methoxyphenyl)-3-(3-chloro-2-fluorophenyl)-4-(4-chloro-2-fluorophenyl)-4-cyano-5-neopentylpyrrolidine-2-carboxamide]",–,–,–,C (Percent Degradation: C ≤ 35),C (Percent Degradation: C ≤ 35),C (Percent Degradation: C ≤ 35),≤ 35%,–
"Cc1ncsc1-c1ccc([C@H](C)NC(=O)[C@@H]2C[C@@H](O)CN2C(=O)[C@@H](NC(=O)COCCOCCN(C)C(=O)CCNc2nc(N3CCN(C(=O)C(O)O)CC3)c3cc(Cl)c(-c4c(O)cccc4F)c(F)c3n2)C(C)(C)C)cc1 (atropisomer, axis not shown) [compound 236, (2S,4R)-1-((S)-2-(tert-butyl)-15-(((S)-6-chloro-4-(4-(2,2-dihydroxyacetyl)piperazin-1-yl)-8-fluoro-7-(2-fluoro-6-hydroxyphenyl)quinazolin-2-yl)amino)-12-methyl-4,13-dioxo-6,9-dioxa-3,12-diazapentadecanoyl)-4-hydroxy-N-((S)-1-(4-(4-methylthiazol-5-yl)phenyl)ethyl)pyrrolidine-2-carboxamide]",–,–,–,–,–,C (Percent Degradation: C ≤ 35),–,–
"CC(=O)N1CCN(c2nc(NCCC(=O)N(C)CCOCCOCC(=O)N[C@H](C(=O)N3C[C@H](O)C[C@H]3C(=O)N[C@@H](C)c3ccc(-c4scnc4C)cc3)C(C)(C)C)nc3c(F)c(-c4cc(O)cc5ccccc45)c(Cl)cc23)CC1 [compound 201, (2S,4R)-1-((2S)-15-((4-(4-acetylpiperazin-1-yl)-6-chloro-8-fluoro-7-(3-hydroxynaphthalen-1-yl)quinazolin-2-yl)amino)-2-(tert-butyl)-12-methyl-4,13-dioxo-6,9-dioxa-3,12-diazapentadecanoyl)-4-hydroxy-N-((S)-1-(4-(4-methylthiazol-5-yl)phenyl)ethyl)pyrrolidine-2-carboxamide]",–,–,–,C (Percent Degradation: C ≤ 35),C (Percent Degradation: C ≤ 35),C (Percent Degradation: C ≤ 35),≤ 35%,–
"C=CC(=O)N1CCN(c2nc(NCCC(=O)N(C)CCOCCOCCOCCOCCOc3cc(-c4scnc4C)ccc3CNC(=O)[C@@H]3C[C@@H](O)CN3C(=O)[C@H](c3cc(C)no3)C(C)C)nc3c(F)c(-c4c(O)cccc4F)c(Cl)cc23)CC1 (atropisomer, axis not shown) [compound 132, (25,4R)-N-(2-((18-(((S)-4-(4-acryloylpiperazin-1-yl)-6-chloro-8-fluoro-7-(2-fluoro-6-hydroxyphenyl)quinazolin-2-yl)amino)-15-methyl-16-oxo-3,6,9,12-tetraoxa-15-azaoctadecyl)oxy)-4-(4-methylthiazol-5-yl)benzyl)-4-hydroxy-1-((S)-3-methyl-2-(3-methylisoxazol-5-yl)butanoyl)pyrrolidine-2-carboxamide]",–,–,–,C (Percent Degradation: C ≤ 35),C (Percent Degradation: C ≤ 35),C (Percent Degradation: C ≤ 35),≤ 35%,–
C=CC(=O)N1CCN(c2nc(O[C@H](C)CN3CCC(OCCOCCNc4cccc5c4C(=O)N(C4CCC(=O)NC4=O)C5=O)CC3)nc3c2CCN(c2cc(O)cc4ccccc24)C3)CC1 (some centres unmarked) [compound 412],–,–,–,–,–,–,–,"Percent Degradation at Indicated Concentration (μM) (H2030 cells, 0.3 μM): C (Percent Degradation: C ≤ 35); Percent Degradation at Indicated Concentration (μM) (H2030 cells, 1 μM): C (Percent Degradation: C ≤ 35); Percent Degradation at Indicated Concentration (μM) (H2030 cells, 3 μM): C (Percent Degradation: C ≤ 35)"

# More lines, main results first:
"Percent Degradation at Indicated Concentration (μM): 0.3 (H2030 cells, 0.3 μM)","Percent Degradation at Indicated Concentration (μM): 1 (H2030 cells, 1 μM)",Dmax (H2030 cells),"Percent Degradation at Indicated Concentration (μM) (H2030, 0.3 μM)","Percent Degradation at Indicated Concentration (μM) (H2030, 1 μM)","Percent Degradation at Indicated Concentration (μM) (H2030, 3 μM)",Dmax,Compound,further results
C (C ≤ 35),C (C ≤ 35),≤ 35%,–,–,–,–,"C=CC(=O)N1CCN(c2nc(NCCC(=O)N(C)CCOCCOCCOc3ccc4c(c3)C(=O)N(C3CCC(=O)NC3=O)C4=O)nc3c(F)c(-c4cc(O)cc5ccccc45)c(Cl)cc23)CC1 (centres unmarked) [compound 61, 3-((4-(4-acryloylpiperazin-1-yl)-6-chloro-8-fluoro-7-(3-hydroxynaphthalen-1-yl)quinazolin-2-yl)amino)-N-(2-(2-(2-((2-(2,6-dioxopiperidin-3-yl)-1,3-dioxoisoindolin-5-yl)oxy)ethoxy)ethoxy)ethyl)-N-methylpropanamide]","Percent Degradation at Indicated Concentration (μM): 0.1 (H2030 cells, 0.1 μM): C (C ≤ 35)"
C (C ≤ 35),C (C ≤ 35),≤ 35%,–,–,–,–,"CCC(=O)N1CCN(c2nc(NCCC(=O)N(C)CCOCCOCCOCCOCCNc3cccc4c3C(=O)N(C3CCC(=O)NC3=O)C4=O)nc3c(F)c(-c4cc(O)cc5ccccc45)c(Cl)cc23)CC1 (centres unmarked) [compound 45, 3-((6-chloro-8-fluoro-7-(3-hydroxynaphthalen-1-yl)-4-(4-propionylpiperazin-1-yl)quinazolin-2-yl)amino)-N-(14-((2-(2,6-dioxopiperidin-3-yl)-1,3-dioxoisoindolin-4-yl)amino)-3,6,9,12-tetraoxatetradecyl)-N-methylpropanamide]","Percent Degradation at Indicated Concentration (μM): 3 (H2030 cells, 3 μM): C (C ≤ 35)"
–,–,–,C (Percent Degradation: C ≤ 35),C (Percent Degradation: C ≤ 35),C (Percent Degradation: C ≤ 35),≤ 35%,"C=CC(=O)N1CCN(c2nc(NCCC(=O)N(C)CCOCCOc3ccc4c(c3)C(=O)N(C3CCC(=O)NC3=O)C4=O)nc3c(F)c(-c4c(O)cccc4F)c(Cl)cc23)CC1 [compound 69, 3-(((S)-4-(4-acryloylpiperazin-1-yl)-6-chloro-8-fluoro-7-(2-fluoro-6-hydroxyphenyl)quinazolin-2-yl)amino)-N-(2-(2-((2-(2,6-dioxopiperidin-3-yl)-1,3-dioxoisoindolin-5-yl)oxy)ethoxy)ethyl)-N-methylpropanamide]",–
C (C ≤ 35),C (C ≤ 35),≤ 35%,–,–,–,–,"C=CC(=O)N1CCN(c2nc(NCCC(=O)N(C)CCOCCOCCOCCOc3ccc4c(c3)CN(C3CCC(=O)NC3=O)C4=O)nc3c(F)c(-c4cc(O)cc5ccccc45)c(Cl)cc23)CC1 (centres unmarked) [compound 67, 3-((4-(4-acryloylpiperazin-1-yl)-6-chloro-8-fluoro-7-(3-hydroxynaphthalen-1-yl)quinazolin-2-yl)amino)-N-(2-(2-(2-(2-((2-(2,6-dioxopiperidin-3-yl)-1-oxoisoindolin-5-yl)oxy)ethoxy)ethoxy)ethoxy)ethyl)-N-methylpropanamide]","Percent Degradation at Indicated Concentration (μM): 3 (H2030 cells, 3 μM): C (C ≤ 35)"

# Reference: patent US12552783B2, “Modulators of proteolysis and associated methods of use” (Arvinas Operations, Inc., priority 2018, dated 2026)
